Measured values reported in paper PMC11537999, “Identification of human pregnane X receptor antagonists utilizing a high-throughput screening platform” (Frontiers in Pharmacology, 2024).

How the values were obtained:
CYP3A4 mRNA expression [1] = test: CYP3A4 mRNA expression by qRT-PCR in HepaRG cells treated with compound alone; assay type: cell-based, human; settings: 24 h, compound at its IC70 concentration, vs DMSO
Description: (§1) Fully differentiated NoSpin™ HepaRG™ cells (Lonza, Walkersville, Maryland) were seeded into 12-well collagen-coated plates (Corning) at a density of 8 × 10^5 cells/well using Williams’ E medium (ThermoFisher) supplemented with HepaRG™ thawing and plating medium supplement (Lonza), 25 U/mL penicillin, and 25 μg/mL streptomycin (Invitrogen). The cells were then placed into a 37°C and 5% CO2 incubator for 3 days including a media change before treatment. Cells were then treated with the vehicle control (final concentration of 0.1% DMSO), the positive controls, or test compounds for 24 h before harvesting.
(§2) Total RNA was extracted from the cell lysate using an RNeasy Mini kit (Qiagen) according to the manufacturer’s instructions. RNA was reverse transcribed to cDNA using a High-Capacity RNA-to-cDNA kit (Applied Biosystems). CYP3A4 and CYP2B6 mRNA expression were both measured and normalized to the glyceraldehyde-3-phosphate dehydrogenase (GAPDH) housekeeping gene. Real-time PCR was completed using a QuantStudio Real-Time PCR system (Applied Biosystems) with TaqMan probes (CYP3A4 Assay ID: Hs00604506_m1, CYP2B6 Assay ID: Hs04183483_g1, GAPDH Assay ID: Hs99999905_m1, ThermoFisher Scientific, Waltham, MA). Following amplification, induction values were calculated using the equation: Fold = 2^−ΔΔCt, where ΔCt represents the difference in number of cycles required to reach the Ct threshold between CYP3A4 or CYP2B6 and GAPDH, and ΔΔCt represents the relative change in these differences between the control (DMSO) and treatment groups. Experimental data are expressed as a mean of triplicate values ±SD. Statistical analysis was performed using one-way analysis of variance with post hoc Dunnett’s analysis. The statistical significance values were set at p < 0.05 (*), p < 0.01 (**), and p < 0.001 (***).
To overcome the previous screening limitations, we used this more physiologically relevant cell line, HepaRG cells, to run follow-up studies with the PXR antagonists identified from the primary screen which used immortalized cell lines without a metabolic component. Using HepaRG cells, the 20 potential PXR antagonists were treated for 24 h and harvested for mRNA (Supplementary Figure S1).
FIGURE 3 HepaRG cells were treated with the top 20 most promising PXR antagonists identified from the high-throughput screen. […] The concentrations for the test compounds were the IC70 values from the original NPACT screen. Real-time PCR was used to analyze the mRNA expression of CYP3A4. Each bar represents the mean ± SD in triplicate. *, p < 0.05; **, p < 0.01.

CYP3A4 mRNA expression [2] = test: Co-treatment pharmacological assay: CYP3A4 mRNA by qRT-PCR in HepaRG cells co-treated with rifampicin; assay type: cell-based, human; settings: for inhibition of CYP3A4 mRNA expression under rifampicin co-treatment (in words): IC50, IC70 or IC90 concentration + 5 μM rifampicin
Description: as §1, §2
As previously mentioned, HepG2 cells are not metabolically competent and therefore use of HepaRG cells or human primary hepatocytes is a better choice to confirm PXR antagonists. […]

SMILES | inhibition of CYP3A4 mRNA expression (in words) (CYP3A4 mRNA expression [1]) | CYP3A4 mRNA expression, average level (CYP3A4 mRNA expression [2]; 15 μM compound + 5 μM rifampicin, DMSO = 1) [fold] | inhibition of CYP3A4 mRNA expression under rifampicin co-treatment (in words) (CYP3A4 mRNA expression [2])
COc1cc(-c2cn(C3CCc4c(F)cccc4N(CC(F)(F)F)C3=O)nn2)ccc1-n1cnc(C)c1 (centres unmarked) [GSM2] | significantly inhibited CYP3A4 mRNA expression | 0.6 | clear concentration dependent inhibition of CYP3A4 mRNA expression
CC(=O)O[C@H]1C[C@@]2(C)[C@@H](C[C@@H](O)[C@H]3[C@@]4(C)CC[C@@H](O)[C@@H](C)[C@@H]4CC[C@@]32C)/C1=C(\CCC=C(C)C)C(=O)O [fusidic acid] | significantly inhibited CYP3A4 mRNA expression | – | clear concentration dependent inhibition of CYP3A4 mRNA expression
